Data: patent publication US20250213586A1, “STAT6 INHIBITORS AND USES THEREOF” (Kymera Therapeutics, Inc., priority 2024, published 2025)

Legend:
[1] = molecular target: T1, biotinylated truncated STAT6 (123-632)-avi (Homo sapiens, UniProt P42226); experiment: biochemical
T1 sequence (P42226 123-632 limits assumed): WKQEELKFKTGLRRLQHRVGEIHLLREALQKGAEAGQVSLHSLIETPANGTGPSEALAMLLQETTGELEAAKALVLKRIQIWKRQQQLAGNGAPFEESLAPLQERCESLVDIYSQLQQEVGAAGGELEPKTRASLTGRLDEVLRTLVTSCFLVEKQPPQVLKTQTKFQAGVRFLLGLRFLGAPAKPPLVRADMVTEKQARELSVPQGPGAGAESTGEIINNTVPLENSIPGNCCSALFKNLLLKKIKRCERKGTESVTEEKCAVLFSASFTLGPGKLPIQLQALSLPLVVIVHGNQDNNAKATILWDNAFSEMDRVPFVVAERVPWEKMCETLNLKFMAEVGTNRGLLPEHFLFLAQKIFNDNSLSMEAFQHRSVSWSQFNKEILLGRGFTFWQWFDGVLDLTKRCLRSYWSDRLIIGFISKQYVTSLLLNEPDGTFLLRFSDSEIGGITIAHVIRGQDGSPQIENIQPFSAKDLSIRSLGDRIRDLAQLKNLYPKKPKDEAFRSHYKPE

STAT6 [2] = molecular target: T2, STAT6 (Homo sapiens, UniProt P42226); experiment: Phosphorylated STAT6 (pSTAT6) flow cytometry assay in human PBMC, IL-4 stimulated; format: cell-based; parameters: endogenous in cells; host or cells: human PBMC (CD19+ B cells), IL-4 stimulated; settings: 1 hour compound, 1 ng/ml IL-4 15 minutes, pSTAT6 in CD19+ B cells, read-out: STAT6 IL4 pSTAT6 assay in PBMC: Average IC50
T2 sequence (P42226 1-847): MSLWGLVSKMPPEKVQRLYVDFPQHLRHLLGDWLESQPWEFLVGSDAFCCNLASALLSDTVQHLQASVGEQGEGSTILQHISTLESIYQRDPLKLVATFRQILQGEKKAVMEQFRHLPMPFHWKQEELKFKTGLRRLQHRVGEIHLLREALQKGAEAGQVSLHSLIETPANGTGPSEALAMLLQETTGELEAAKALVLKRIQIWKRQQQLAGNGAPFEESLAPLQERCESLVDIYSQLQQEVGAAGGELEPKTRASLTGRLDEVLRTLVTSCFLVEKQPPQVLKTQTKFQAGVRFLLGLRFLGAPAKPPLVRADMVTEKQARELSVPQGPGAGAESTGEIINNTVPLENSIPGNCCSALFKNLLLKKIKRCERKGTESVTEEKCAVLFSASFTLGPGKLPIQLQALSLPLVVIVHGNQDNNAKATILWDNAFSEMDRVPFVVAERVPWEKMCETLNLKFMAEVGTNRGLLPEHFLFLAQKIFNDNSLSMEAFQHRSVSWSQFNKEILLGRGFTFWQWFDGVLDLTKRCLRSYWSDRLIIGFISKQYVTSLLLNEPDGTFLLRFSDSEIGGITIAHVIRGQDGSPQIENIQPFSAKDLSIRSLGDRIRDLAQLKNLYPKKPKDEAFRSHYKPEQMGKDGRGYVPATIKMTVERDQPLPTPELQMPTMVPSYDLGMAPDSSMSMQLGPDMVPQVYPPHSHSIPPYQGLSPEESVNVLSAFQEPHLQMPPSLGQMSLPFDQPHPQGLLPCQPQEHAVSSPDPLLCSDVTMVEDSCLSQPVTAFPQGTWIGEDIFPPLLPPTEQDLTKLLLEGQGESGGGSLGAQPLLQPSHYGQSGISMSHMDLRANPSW
Method: Example 2. Phosphorylated STAT6 (pSTAT6) Flow Cytometry Assay in Human PBMC
Phosphorylation of STAT6 in human PBMC was quantitatively measured using flow cytometry technology. Human PBMC were seeded in 96-well plates with a density of 0.3 to 0.5 million cells per well in 100 μl fresh media. Compounds were then added to the assay plates with a final top concentration of up to […] in a 1:3 dilution series with total of 9 doses. The assay plates were incubated for 1 hour at 37° C. under 5% CO2. The cells were then stimulated with 1 ng/ml of IL-4 (R&D Systems, Cat #6507-IL) for 15 minutes, followed by fixation for 30 minutes at 4° C. Cells were spun down at 350 g for 5 minutes. The supernatant was removed and cells were washed once with FACS buffer. Cells were permeabilized with 90% MeOH/H2O for 30 minutes at 4° C., followed by one wash with FACS buffer. Non-specific binding were blocked with human Fc for 1 hour at 4° C., followed by one wash with FACS buffer. AF488 conjugated pSTAT6 antibody (BD Biosciences, Cat #612600, 1:100 dilution) and PE conjugated CD19 antibody (BD Biosciences, Cat #341103, 1:50 dilution) diluted in 100 μl FACS buffer was added to each well with overnight incubation at 4° C. Cells were then washed once with FACS buffer and resuspended in 200 μl of FACS buffer for flow cytometry to quantify pSTAT6 in CD19+ B cells. The data was analyzed by GraphPad Prism and the dose dependent pSTAT6 inhibition was fit using the four-parameter inhibitor vs. response nonlinear regression.

STAT6 [3] = molecular target: T2, STAT6; experiment: Phosphorylated STAT6 (pSTAT6) flow cytometry assay in human A549 cells; format: cell-based; parameters: endogenous in cells; settings: read-out: STAT6 IL4 pSTAT6 assay in A549 cells: Average IC50
Excerpt: Example 3. Phosphorylated STAT6 (pSTAT6) Flow Cytometry Assay in Human A549 Cells
Phosphorylation of STAT6 in human A549 cells was quantitatively measured using flow cytometry technology.

Compound | IC50 [1] [µM] | IC50 (STAT6 [2]) [µM] | IC50 (STAT6 [3]) [µM]
CN(C)C(=O)c1cc2c([nH]1)CN(C1CCCN(C(=O)CCn3ccnn3)C1)CC2 (stereo not drawn) [Compound I-1297] | 10 to 100 |  | 
Cc1cscc1-c1cc(CO)ccc1C(=O)N(C)CC1CCN(c2ccc(-n3ccccc3=O)cc2F)CC1 [Compound I-131] | 10 to 100 | > 100 | 
Cn1cccc(-c2ccc([C@H]3CCCN(C(=O)CCn4ccnn4)C3)cc2F)c1=O (single isomer, unassigned) [Compound I-7] | 10 to 100 | > 100 | 
CN(C)C(=O)c1ccc(C2=CCCN(C(=O)CC3CNc4ccccc4O3)C2)c(C#N)c1 (stereo not drawn) [Compound I-223] | 10 to 100 | > 100 | 
CN1CCN(c2ccc(C3=CCCN(C(=O)CCn4ccnn4)C3)cc2Cl)CC1=O [Compound I-6] | 10 to 100 | 10 to 100 | 
CN(CC1CCN(c2ccc(-n3ccccc3=O)cc2F)CC1)C(=O)c1ccc(OC(F)F)cc1 [Compound I-1273] | 10 to 100 |  | 
CN(C)C(=O)c1cc2ccc(-c3cnc(CC(=O)Nc4cccc(C(N)=O)c4)s3)c(F)c2[nH]1 [Compound I-1323] | 0.1 to 1 |  | 
CN(C)C(=O)c1ccc(C2=CCCN(C(=O)CCn3ccnn3)C2)cc1C(N)=O [Compound I-211] | 10 to 100 | > 100 | 
CN(C)C(=O)c1ccc(C2=CCCN(C(=O)CC3Oc4ccccc4NC3=O)C2)c(OC(F)(F)F)c1 (stereo not drawn) [Compound I-1298] | 10 to 100 |  | 
CN(C)C(=O)c1ccc(N2CCC(CN(C)C(=O)c3ccc(CO)cc3)CC2)c(F)c1 [Compound I-238] | 10 to 100 | > 100 | 
COC(=O)COc1cc(C2=CCCN(C(=O)CCn3ccnn3)C2)ccc1C(=O)N(C)C [Compound I-250] | 10 to 100 | > 100 | 
CN(C)C(=O)c1ccc(C2=CCCN(C(=O)CCn3ccnn3)C2)cc1C#N [Compound I-230] | > 100 | > 100 | 
O=C(CCn1ccnn1)N1CCC[C@H](c2ccc(-n3ccccc3=O)c(F)c2)C1 (single isomer, unassigned) [Compound I-1294] | 10 to 100 |  | 
O=C(CCn1ccnn1)N1CCC[C@@H](c2ccc(-n3ccccc3=O)c(F)c2)C1 (single isomer, unassigned) [Compound I-1293] | 10 to 100 |  | 
COc1cc(C(=O)N(C)C)ccc1C1=CCCN(C(=O)CCn2ccnn2)C1 [Compound I-260] | 1 to 10 | > 100 | 
Cn1cccc(-c2ccc([C@@H]3CCCN(C(=O)CCn4ccnn4)C3)cc2F)c1=O (single isomer, unassigned) [Compound I-320] | 10 to 100 | > 100 | 
CN(C)C(=O)c1ccc2ccc(C3=CCCN(C(=O)CCn4ccnn4)C3)cc2c1 [Compound I-242] | 10 to 100 | > 100 | 
CN(C)C(=O)c1ccc(C2=CCCN(C(=O)CCn3ccnn3)C2)cc1O [Compound I-218] | 10 to 100 | > 100 | 

Compound | IC50 [1] [µM] | IC50 (STAT6 [2]) [µM] | IC50 (STAT6 [3]) [µM]
CCc1ccc(-c2cc(C(=O)N3Cc4cnn(CC)c4C3)cc3cc(-c4cc(C(=O)O)ccc4C)n(CC4CC4)c23)c(C)n1 [Compound I-1246] | 1 to 10 |  | 
CN(CC1CCN(c2ccc(-n3ccccc3=O)cc2F)CC1)C(=O)c1ccc(CO)cc1-c1ccsc1 [Compound I-164] | 1 to 10 | > 100 | 
CN(C)C(=O)c1cc2cc(NC(=O)CCn3ccnn3)ccc2o1 [Compound I-262] | 10 to 100 | > 100 | 
COc1ccccc1-c1cc(Cc2ccccn2)c(F)c(C2=CCCN(C(=O)CCn3ccnn3)C2)c1 [Compound I-1102] | 0.1 to 1 |  | 0.1 to 1
CN(CC1CCN(c2ccc(-n3ccccc3=O)cc2)CC1)C(=O)c1ccc(CO)cc1 [Compound I-183] | 10 to 100 | > 100 | 
CN(C)C(=O)c1cnc(-c2ccc(NC(=O)CCn3ccnn3)cc2)[nH]1 [Compound I-1295] | 10 to 100 |  | 
CN(CC1CCN(c2ccc(-n3ccccc3=O)cc2F)CC1)C(Cc1cccnn1)c1ccc(CO)cc1 (stereo not drawn) [Compound I-121] | > 100 | > 100 | 
CN(C)C(=O)c1cc2cc(NC(=O)CCCn3ccnn3)ccc2o1 [Compound I-258] | 10 to 100 | > 100 | 
CN(C)C(=O)c1ccc(C2=CCCN(C(=O)CCn3ccnn3)C2)cc1 [Compound I-288] | 1 to 10 | > 100 | 
CNC(=O)c1ccc2c(c1)nc(-c1cccn1C)n2-c1ccccc1OC(F)F [Compound I-1272] | 10 to 100 |  | 
COc1ccccc1-c1cc(-n2ccccc2=O)cc(F)c1N1CCC(CN(C)C(=O)c2ccc(CO)cc2)CC1 [Compound I-1296] | 10 to 100 |  | 
O=C(CCn1ccnn1)N1CCC=C(c2ccc(-n3ccccc3=O)cc2)C1 [Compound I-1625] | 1 to 10 |  | 
COc1ccccc1-c1cc(-c2cccc(C(=O)N(C)C)c2)c(F)c2[nH]c(C(=O)N(C)C)cc12 [Compound I-1583] | 1 to 10 |  | 
CN(C)C(=O)c1ccc(C2=CCCN(C(=O)CCn3ccnn3)C2)c(O)c1 [Compound I-253] | 1 to 10 | > 100 | 
CN(C)C(=O)c1cc2cc(C3CCN(C(=O)CCn4ccnn4)C3)ccc2o1 (stereo not drawn) [Compound I-303] | 10 to 100 | > 100 | 
CN(C)C(=O)c1cc2ccc(C3CCCCN(C(=O)Nc4cccc(C(N)=O)c4)C3)c(F)c2[nH]1 (stereo not drawn) [Compound I-1325] | 10 to 100 |  | 
CNC(=O)c1ccc2c(c1)nc(-c1nc3ccc(F)cc3[nH]1)n2Cc1ccc(CN2CCOCC2)o1 [Compound I-1271] | 10 to 100 |  | 
CCc1ccc(-c2cc(C(=O)N3Cc4cnn(CC)c4C3)cc3cc(-c4cccc(C(=O)O)c4C)n(CC4CC4)c23)c(C)n1 [Compound I-1240] | 1 to 10 |  | 
